{
  "source": "patent US8702939B2",
  "about": "“Electrotaxis methods and devices” (McMaster University, priority 2010, dated 2014)",
  "type_in_all_cases": "in vivo, Caenorhabditis elegans",
  "key": {"C. elegans [1]": {"tested_on": "C. elegans", "assay": "microfluidic electrotaxis assay of toxin/drug-exposed worms (U-turn, head movement, speed)", "settings": "for movement speed response of toxin-treated animals: abnormal = slower than 215 μm/sec, 3V/cm", "procedure": "The toxins 6-OHDA (catalog no. 162957), Rotenone (catalog no. R8875) and Acetaminophen (catalog no. A7085) were obtained from Sigma Aldrich. MPTP (M325913) was from Toronto Research Chemicals. […] 6-OHDA solution is sensitive to light and therefore it was kept in the dark. A stock solution of Acetaminophen (10 mM) was prepared and stored at −20° C. At the time of toxin assay, the stock solution was diluted to 100 μM final concentration.\n(§1) All assays with toxins were done using L1 stage worms. Synchronized L1 worms were exposed to toxin solutions for different time periods with mild shaking on a rotating platform. At the end of the time period, tubes were briefly centrifuged to remove drug solution and worm pellets were diluted with […] and were plated on normal NG agar plates.\n(§2) Experimental design was as described Rezai et al., ibid. Electric field was fixed at 3V/cm. Then, the direction of the electric field was changed and the worm was allowed to move the same distance in the opposite direction. The movement of each worm was recorded using a Nikon Coolpix P5100, NY, USA. The captured videos were analyzed using the ImageJ NIH image module. Three parameters—U-turn, head movement and speed—were used to characterize the behaviour of animals. For U-turn, the time (in seconds) that was taken by a moving worm to come to a stop and turn to the opposite direction after the electric field direction was reversed was recorded. Most wild type worms (˜90%, see results) were able to change direction in less than 10 seconds. Worms taking 10 sec or longer were considered to have an abnormal response. For the head movement analysis, the number of full sine waves (i.e., spanning up to three-fourth of the channel width) that a worm makes within a 30 sec. duration were determined. Wild-type worms make full sine waves in majority of cases with failures typically being less than 25%. Therefore, a threshold of 25% to place a worm in normal or abnormal category was used. […] To analyze speed, the time taken by a worm to move a distance of 5000 μm in a given direction was used. Speed was measured in both directions of movement and the average value was used as a true response. Wild type animals typically moved with a speed of 215 μm/sec and above. Therefore, animals moving slower than 215 μm/sec were considered to have an abnormal response."}, "DA neurons": {"tested_on": "DA neurons", "assay": "toxin-induced degeneration of DA neurons in dat-1p::yfp transgenic animals", "excerpt": "In some cases, the entire dendritic processes were missing."}, "C. elegans [2]": {"tested_on": "C. elegans", "settings": "for movement defects on plate: lowered concentration and exposure time, slow reaction when touched on head or tail", "procedure": "as §1\nThese phenotypes are in agreement with published studies."}, "C. elegans [3]": {"tested_on": "C. elegans", "assay": "channel-based drug-screening assay: acetaminophen pre-treatment against neurotoxins (electrotaxis)", "procedure": "The toxins 6-OHDA (catalog no. 162957), Rotenone (catalog no. R8875) and Acetaminophen (catalog no. A7085) were obtained from Sigma Aldrich. MPTP (M325913) was from Toronto Research Chemicals. Desired concentrations of 6-OHDA (100 μM), MPTP (700 μM) and Rotenone (25 μM) were prepared in M9 one day before the assay and stored at −20° C. 6-OHDA solution is sensitive to light and therefore it was kept in the dark. A stock solution of Acetaminophen (10 mM) was prepared and stored at −20° C. At the time of toxin assay, the stock solution was diluted to 100 μM final concentration.\nas §2\nIn order to establish a baseline to screen for neuroprotective compounds in a channel-based assay, the neuroprotective effect of acetaminophen (a known analgesic) against neurodegeneration caused by toxinsas tested.\nPre-treatment of worms with acetaminophen (100 uM, 24 hrs exposure during L1 stage) prior to treatment with 6-0H DA as above, conferred a significant protection on the worms as evidenced by the electrotactic response of worms using all 3 movement parameters described above. The protection ranged from 30% to 50% (FIG. 34). […] The defect in head movement was decreased by 40% and U-turn by 30%. The impact of Acetaminophen on Rotenone-induced neuronal toxicity and provide first evidence that Acetaminophen protects DA neurons from the toxic effects of Rotenone. While the head movement defect was decreased by 20%, abnormalities in U-turn response and speed were lower by 50% and 38%, respectively."}},
  "data": [
    {"smiles": "NCCc1cc(O)c(O)cc1O", "note": "[6-OHDA, 6-hydroxydopamine]", "values": [
      {"measurement": "electrotactic response in channel", "setting": "C. elegans [1]; 100 μM 6-OHDA for as little as 30 min", "result": "abnormal electrotactic response"},
      {"measurement": "electrotactic response in channel", "setting": "C. elegans [1]; 5 mM 6-OHDA treated L1 animals", "result": "practically immobile and unresponsive to the electric field stimulus"},
      {"measurement": "U-turn defect, proportion of worms", "setting": "C. elegans [1]; 6-OHDA 100 μM, within 4 hour exposure of L1 worms, electric field 3V/cm, abnormal = 10 sec or longer", "result": "30-80%"},
      {"measurement": "defective head movement response, proportion of worms", "setting": "C. elegans [1]; 6-OHDA, 30 minutes toxin exposure", "result": "about one-third"},
      {"measurement": "defective head movement response, proportion of animals", "setting": "C. elegans [1]; 6-OHDA, 1 hr exposure", "result": 50, "unit": "%"},
      {"measurement": "defective head movement response, proportion of worms", "setting": "C. elegans [1]; 6-OHDA, 4 hour exposure", "result": 61, "unit": "%"},
      {"measurement": "movement speed response of toxin-treated animals", "setting": "C. elegans [1]", "result": "most defective response compared to the other 2 toxins"},
      {"measurement": "degeneration of DA neurons", "setting": "DA neurons; 6-OHDA 100 μM for 4 hours", "result": "did not cause an obvious degeneration of DA neurons"},
      {"measurement": "animals with DA neuron (CEP dendritic process) defects", "setting": "DA neurons; 6-OHDA 100 μM, longer exposure ~71 hrs", "result": 15, "unit": "%"},
      {"measurement": "phenotype of treated L1 animals", "setting": "C. elegans [2]; 5 mM 6-OHDA", "result": "extreme sluggishness, uncoordinated movement, protruding vulva, growth arrest and early larval lethality"},
      {"measurement": "weak uncoordinated phenotype, proportion of worms (plate)", "setting": "C. elegans [2]; 6-OHDA, 30 min exposure", "result": "one-quarter"},
      {"measurement": "morphological defects on plate", "setting": "C. elegans [2]; 6-OHDA, 4 hr exposure", "result": "morphological defects such as protruding vulva (Pvl)"},
      {"measurement": "uncoordinated phenotype, proportion of animals (plate)", "setting": "C. elegans [2]; 6-OHDA, 4 hr exposure", "result": 86, "unit": "%"}
    ]},
    {"smiles": "CN1CC=C(c2ccccc2)CC1", "note": "[MPTP, 1-methyl 4-phenyl 1,2,3,6-tetrahydropyridine]", "values": [
      {"measurement": "electrotactic response in channel", "setting": "C. elegans [1]; 700 μM MPTP for up to 8 hrs", "result": "obvious defects in the channel assay"},
      {"measurement": "head movement defects, proportion of worms", "setting": "C. elegans [1]; MPTP, 4 hr exposure", "result": 80, "unit": "%"},
      {"measurement": "movement speed response of toxin-treated animals", "setting": "C. elegans [1]", "result": "wild type response in all 3 conditions tested"},
      {"measurement": "appearance on NG agar plates", "setting": "C. elegans [2]; 700 μM MPTP for up to 8 hrs", "result": "fairly active and healthy"},
      {"measurement": "phenotype of treated L1 worms", "setting": "C. elegans [2]; 1.4 mM MPTP for 3 days", "result": "almost completely uncoordinated and paralyzed"},
      {"measurement": "movement defects on plate", "setting": "C. elegans [2]", "result": "only subtle and low penetrant movement defects"}
    ]},
    {"smiles": "C=C(C)[C@H]1Cc2c(ccc3c2O[C@@H]2COc4cc(OC)c(OC)cc4[C@@H]2C3=O)O1", "note": "[Rotenone]", "values": [
      {"measurement": "electrotactic movement", "setting": "C. elegans [1]; 25 μM Rotenone for 1-8 hr", "result": "abnormal electrotactic movement"},
      {"measurement": "defect in the speed of animals", "setting": "C. elegans [1]; Rotenone exposure", "result": 48, "unit": "%"},
      {"measurement": "abnormal head movement response, proportion of worms", "setting": "C. elegans [1]; Rotenone, after 8 hrs of toxin exposure", "result": "up to 30%"},
      {"measurement": "appearance on the plate", "setting": "C. elegans [2]; 25 μM Rotenone for 1-8 hr", "result": "largely healthy"},
      {"measurement": "morphology of exposed worms", "setting": "C. elegans [2]; 25 μM rotenone for less than 12 hrs", "result": "morphological defects similar to MPTP"},
      {"measurement": "movement defects on plate", "setting": "C. elegans [2]", "result": "only subtle and low penetrant movement defects"}
    ]},
    {"smiles": "CC(=O)Nc1ccc(O)cc1", "note": "[acetaminophen]", "values": [
      {"measurement": "decrease of U-turn defect", "setting": "C. elegans [3]; MPTP", "result": 30, "unit": "%"},
      {"measurement": "decrease of head movement defect", "setting": "C. elegans [3]; MPTP", "result": 40, "unit": "%"},
      {"measurement": "decrease of abnormalities in U-turn response", "setting": "C. elegans [3]; Rotenone", "result": 50, "unit": "%"},
      {"measurement": "decrease of abnormalities in speed", "setting": "C. elegans [3]; Rotenone", "result": 38, "unit": "%"},
      {"measurement": "decrease of head movement defect", "setting": "C. elegans [3]; Rotenone", "result": 20, "unit": "%"}
    ]},
    {"smiles": "c1ccc([C@H]2CN3CCSC3=N2)cc1", "note": "[levamisole]", "values": [
      {"measurement": "movement response in microfluidic channel", "setting": "C. elegans [1]; 10 μM levamisole, only 5 worms tested", "result": "reduced movement"}
    ]}
  ]
}
